From ChEMBL document CHEMBL1135511, “Structure activity of 3-aryl-1,3-diketo-containing compounds as HIV-1 integrase inhibitors” (J Med Chem, 2002)

Columns and labels:
[1] = molecular target: T1, Human immunodeficiency virus type 1 integrase (Human immunodeficiency virus 1, UniProt Q7ZJM1)
[2] = molecular target: T1, Human immunodeficiency virus type 1 integrase; test: Inhibitory effect on strand transfer of proximal DNA into host DNA in an extracellular HIV-1 integrase assay in experiment 1
[3] = molecular target: T1, Human immunodeficiency virus type 1 integrase; test: Inhibitory effect on strand transfer of proximal DNA into host DNA in an extracellular HIV-1 integrase assay in experiment 2
[4] = molecular target: T1, Human immunodeficiency virus type 1 integrase; remark: listed apart in the source
[5] = Inhibitory concentration by single cycle replication assay using envelope deficient HIV-1; assay type: functional, Homo sapiens
[6] = molecular target: T1, Human immunodeficiency virus type 1 integrase; test: Inhibitory effect on 3'-processing(3'-P) of proximal DNA in an extracellular HIV-1 integrase assay in experiment 2
[7] = molecular target: T1, Human immunodeficiency virus type 1 integrase; test: Inhibitory effect on 3'-processing(3'-P) of proximal DNA in an extracellular HIV-1 integrase assay in experiment 1

T1 sequence (Q7ZJM1 whole entry): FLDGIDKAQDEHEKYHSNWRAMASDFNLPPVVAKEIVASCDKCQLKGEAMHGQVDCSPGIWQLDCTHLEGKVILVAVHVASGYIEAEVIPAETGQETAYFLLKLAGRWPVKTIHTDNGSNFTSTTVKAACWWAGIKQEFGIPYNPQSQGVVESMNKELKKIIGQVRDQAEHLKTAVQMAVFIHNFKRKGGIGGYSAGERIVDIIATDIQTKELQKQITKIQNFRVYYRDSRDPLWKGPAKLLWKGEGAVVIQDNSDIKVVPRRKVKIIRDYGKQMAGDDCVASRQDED

Compound | IC50 [1] [µM] | IC50 [4] [µM] | also measured
O=C(O)C(=O)/C=C(\O)c1c[nH]c2ccc(Cl)cc12 | 0.52 |  | 
O=C(O)C(=O)/C=C(\O)c1ccc(Oc2ccccc2)cc1 |  | > 100 | IC50 [2]: 7.8 µM; IC50 [3]: 15 µM
O=C(O)c1ccc2[nH]cc(C(=O)CC(=O)c3nnn[nH]3)c2c1 | 40 | 40 | 
O=C(O)C(=O)/C=C(\O)c1cccc(OCc2ccccc2)c1 | 0.35 |  | IC50 [5]: 0.6 µM; IC50 [6]: 100 µM
O=C(O)C(=O)/C=C(\O)c1cccc(Br)c1 |  | > 100 | IC50 [2]: 2 µM; IC50 [3]: 3 µM
O=C(O)C(=O)/C=C(\O)c1cc(OCc2ccccc2)cc(OCc2ccccc2)c1 | 0.48 | > 1000 | IC50 [5]: 2.3 µM
O=C(O)C(=O)/C=C(\O)c1cccc(NC(=O)c2ccccc2)c1 | 35 | > 100 | 
O=C(O)C(=O)/C=C(\O)c1c[nH]c2ccccc12 | 1.43 | > 100 | 
CCOC(=O)C(=O)/C=C(\O)c1c[nH]c2ccc(Cl)cc12 | 6.9 | > 100 | 
O=C(CC(=O)c1c[nH]c2ccccc12)c1nnn[nH]1 |  | > 100 | IC50 [2]: 1.9 µM; IC50 [3]: 2 µM
COc1ccc(Cn2nnnc2C(=O)/C=C(\O)c2c[nH]c3ccc(Cl)cc23)cc1 | 34 | > 100 | 
O=C(O)C(=O)/C=C(\O)c1cccc(/C(O)=C/C(=O)C(=O)O)c1 | 1.83 | 7.8 | 
O=C(O)C(=O)/C=C(\O)c1ccnc2ccccc12 | > 100 | > 100 | 
O=C(O)C(=O)/C=C(\O)c1ccc(/C(O)=C/C(=O)C(=O)O)cc1 | 1.28 |  | IC50 [7]: 7.2 µM; IC50 [6]: 7.5 µM
COc1ccc(Cn2nnnc2C(=O)/C=C(\O)c2cc(OCc3ccccc3)cc(OCc3ccccc3)c2)cc1 | > 100 | > 100 | 
COc1ccc(Cn2nnnc2C(=O)/C=C(\O)c2c[nH]c3ccccc23)cc1 | > 100 | > 100 | 
COc1cc(Cn2nnnc2C(=O)/C=C(\O)c2c[nH]c3ccccc23)cc(OC)c1 | > 100 | > 100 | 
O=C(O)C(=O)/C=C(\O)c1cc(/C(O)=C/C(=O)C(=O)O)c2ccccc2n1 | 6.5 | 82 | 
O=C(CC(=O)c1c[nH]c2ccc(F)cc12)c1nnn[nH]1 | 1.8 | 79 | 
